Reference: patent publication US20240300979A1, “SN-38 DERIVATIVE, NANO-PARTICLES CONTAINING SAID DERIVATIVE, MEDICINE, AND METHOD FOR PRODUCING SAID NANO-PARTICLES” (JAPAN SCIENCE AND TECHNOLOGY AGENCY, priority 2021, published 2024)

Legend:
[1] = system: human colon cancer cell line HCT-116; assay: In vitro activity test, Test Example 4, cancer cell; format: cell-based; conditions: HCT-116 (Cancer cell), 48 hours, read-out: cell viability IC50
Experimental: (§1) Human liver cancer cell line HePG2 or human breast cancer cell line KPL-4 was seeded in a 96-well plate at 2×10^4 cells/well. On the next day, irinotecan and each SN-38 derivative (compound A ((SN-38×C6 dimer (S—S, ester)), compound B (SN-38×C6 dimer (S—S, carbonate))) nanoparticle dispersion were added to the HepG2 cell culture medium to 0.04 to 10 μM. Then, the cells were cultured for 48 hours, and the cell viability was measured by a colorimetric method using the Cell Counting Kit-8 (produced by Dojindo Laboratories) and a microplate reader.
(§2) As in Test Example 1, human colon cancer cell line HCT-116 or human mammary epithelial cell line HMEC was seeded in a 96-well plate at 2×10^4 cells/well. On the next day, SN-38 and the SN-38 derivative (SNC4DC) nanoparticle dispersion were added to the cell culture medium to 0.04 to 10 μM. Then, the cells were cultured for 48 hours, and the cell viability was measured by a colorimetric method using the Cell Counting Kit-8 (produced by Dojindo Laboratories) and a microplate reader.

[2] = system: human mammary epithelial cell line HMEC; assay: In vitro activity test, Test Example 4, normal cell; format: cell-based
Experimental: as §1, §2

[3] = system: Human liver cancer cell line HePG2 or human breast cancer cell line KPL-4; assay: In vitro activity test, Test Example 1 (cell viability, Cell Counting Kit-8); format: cell-based; conditions: nanoparticle dispersion, 0.04 to 10 μM, 48 hours
Experimental: as §1

[4] = Nanoparticle aqueous dispersion, particle size and aggregation by SEM and DLS; format: physicochemical; conditions: 0.1 mM aqueous dispersion of nanoparticles
Experimental: 100 μL of THF solution of compound A or B prepared to 10 mM was injected into 10 mL of water using a syringe at room temperature, followed by stirring for 2 seconds at 1500 rpm, thereby obtaining an aqueous dispersion of nanoparticles. The concentration of the final aqueous dispersion was 0.1 mM.
100 μL of DMSO or THF solution of each compound prepared to 10 mM was injected into 10 mL of water using a syringe at room temperature, followed by stirring for 2 seconds at 1500 rpm, thereby obtaining an aqueous dispersion of nanoparticles. The concentration of the final aqueous dispersion was 0.1 mM.

[5] = Dispersion stability of the nano-prodrug; format: physicochemical
Excerpt: (§3) Then, nanoparticles were produced. […] The present invention is based on these new findings. Therefore, the present invention provides the following items: […]

[6] = Drug release triggered by the S-S bond on addition of dithiothreitol and glutathione; format: physicochemical; conditions: dithiothreitol and glutathione (reduced form) added to the nano-prodrug
Excerpt: as §3

| Structure (SMILES) | IC50 [1] [nM] | toxicity to normal cells ([2]; HMEC, in words from Table 4) | IC50 ([2]; Homo sapiens, HMEC (Normal cell), 48 hours, read-out: cell viability IC50) [nM] | pharmacological activity (cell viability, FIG. 1) [3] | particle size [4] | dispersion stability [5] [days] | cleavage of the S-S bond [6] | formation of C6 acyloxy-substituted SN-38 derivative (drug release) [6] |
| --- | --- | --- | --- | --- | --- | --- | --- | --- |
| CCc1c2c(nc3ccc(O)cc13)-c1cc3c(c(=O)n1C2)COC(=O)[C@]3(O)CC [SN-38] | 40 | highly toxic to normal cells | 550 | – | – | – | – | – |
| CCCCCC(=O)Oc1ccc2nc3c(c(CC)c2c1)Cn1c-3cc2c(c1=O)COC(=O)[C@@]2(CC)OC(=O)CCCSSCCCC(=O)O[C@]1(CC)C(=O)OCc2c1cc1n(c2=O)Cc2c-1nc1ccc(OC(=O)CCCCC)cc1c2CC [compound A] | – | – | – | did not exhibited good pharmacological activity | about 100 nm | ≥ 7 | the cleavage of the S—S bond proceeded somewhat | not confirmed |
